Assay results as given in ChEMBL document CHEMBL1201862, “PubChem BioAssay data set” (2004).
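Interpolation was linear, between the two tested concentrations surrounding the appropriate level; five concentrations were tested over 48 hours in 96-well plates. GI50 marks 50% less growth.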 Activity calls are given as the source filed them. Rule as the data show it: active = GI50 up to about 1.1 µM and inactive = higher.

Experiments:
Test in all cases: inhibition of tumour cell growth, NCI panel, 48 h
UACC-257 = test system: UACC-257
COLO 205 = test system: COLO 205
EKVX = test system: EKVX
SK-MEL-5 = test system: SK-MEL-5
IGROV-1 = test system: IGROV-1
NCI-H522 = test system: NCI-H522
NCI-H460 = test system: NCI-H460
NCI-H226 = test system: NCI-H226
KM12 = test system: KM12
RXF 393 = test system: RXF 393
A498 = test system: A498
T47D = test system: T47D
SF-295 = test system: SF-295
M14 = test system: M14
SNB-19 = test system: SNB-19
MDA-MB-231 = test system: MDA-MB-231
TK-10 = test system: TK-10
MOLT-4 = test system: MOLT-4
SF-539 = test system: SF-539
SK-OV-3 = test system: SK-OV-3
OVCAR-3 = test system: OVCAR-3
SF-268 = test system: SF-268
CAKI-1 = test system: CAKI-1
HCT-116 = test system: HCT-116
HCT-15 = test system: HCT-15
786-0 = test system: 786-0
ACHN = test system: ACHN
OVCAR-5 = test system: OVCAR-5
OVCAR-4 = test system: OVCAR-4
NCI-H23 = test system: NCI-H23
HOP-62 = test system: HOP-62
SK-MEL-2 = test system: SK-MEL-2
SNB-75 = test system: SNB-75
MCF7 = test system: MCF7
CCRF-CEM = test system: CCRF-CEM
SW-620 = test system: SW-620
A549 = test system: A549
MDA-MB-435 = test system: MDA-MB-435
RPMI-8226 = test system: RPMI-8226
PC-3 = test system: PC-3
HCC 2998 = test system: HCC 2998
UO-31 = test system: UO-31
BT-549 = test system: BT-549
OVCAR-8 = test system: OVCAR-8
U-251 = test system: U-251
Malme-3M = test system: Malme-3M
SK-MEL-28 = test system: SK-MEL-28
SN12C = test system: SN12C
LOX IMVI = test system: LOX IMVI
MDA-N = test system: MDA-N
NCI/ADR-RES = test system: NCI/ADR-RES

CC(C)=CCCC1(Sc2ccccc2)C(=O)OCC1C=C(C)C (stereo unspecified)
GI50 (UACC-257): 17.5 µM (inactive) | GI50 (COLO 205): 23.2 µM (inactive) | GI50 (EKVX): 19 µM (inactive) | GI50 (SK-MEL-5): 20.3 µM (inactive) | GI50 (IGROV-1): 16.8 µM (inactive) | GI50 (NCI-H522): 23.2 µM (inactive) | GI50 (NCI-H460): 18.3 µM (inactive) | GI50 (NCI-H226): 24.3 µM (inactive) | GI50 (KM12): 27 µM (inactive) | GI50 (RXF 393): 17.1 µM (inactive) | GI50 (A498): 52.4 µM (inactive) | GI50 (T47D): 22.4 µM (inactive) | GI50 (SF-295): 36.7 µM (inactive) | GI50 (M14): 17.3 µM (inactive) | GI50 (SNB-19): 21.5 µM (inactive) | GI50 (MDA-MB-231): 47.2 µM (inactive) | GI50 (TK-10): 34.8 µM (inactive) | GI50 (MOLT-4): 7.31 µM (inactive) | GI50 (SF-539): 20.6 µM (inactive) | GI50 (SK-OV-3): 21.1 µM (inactive) | GI50 (OVCAR-3): 17.3 µM (inactive) | GI50 (SF-268): 38.6 µM (inactive) | GI50 (CAKI-1): 23.2 µM (inactive) | GI50 (HCT-116): 11.5 µM (inactive) | GI50 (HCT-15): 29.9 µM | GI50 (786-0): 17.7 µM (inactive) | GI50 (ACHN): 32.5 µM (inactive) | GI50 (OVCAR-5): 21.3 µM (inactive) | GI50 (OVCAR-4): 29 µM (inactive) | GI50 (NCI-H23): 31.3 µM (inactive) | GI50 (HOP-62): 48.9 µM (inactive) | GI50 (SK-MEL-2): 18.5 µM (inactive) | GI50 (SNB-75): 36.6 µM (inactive) | GI50 (MCF7): 38.9 µM (inactive) | GI50 (CCRF-CEM): 32.4 µM (inactive) | GI50 (SW-620): 61.9 µM (inactive) | GI50 (A549): 13.5 µM (inactive) | GI50 (MDA-MB-435): 32.1 µM (inactive) | GI50 (RPMI-8226): 21.5 µM (inactive) | GI50 (PC-3): 31.8 µM (inactive) | GI50 (HCC 2998): 29.8 µM (inactive) | GI50 (UO-31): 22.6 µM (inactive) | GI50 (BT-549): 36.3 µM (inactive) | GI50 (OVCAR-8): 30.5 µM (inactive) | GI50 (U-251): 27.7 µM (inactive) | GI50 (Malme-3M): 17.5 µM (inactive) | GI50 (SK-MEL-28): 47.3 µM (inactive) | GI50 (SN12C): 15 µM (inactive) | GI50 (LOX IMVI): 16.5 µM (inactive) | GI50 (MDA-N): 19.9 µM (inactive) | GI50 (NCI/ADR-RES): 21.2 µM (inactive)
